Entries after “also recorded” stand apart in the source; their conditions may differ. Read-outs that look alike come from different tables or passages of the source. Where a SMILES comes first, the peptide text is derived from it. The star is where a group is joined. Cbz = O=C(OCc1ccccc1)*
What was measured:
pThr231Tau/tTau [1] = experiment: pThr231Tau/tTau ratio (ELISA) in APP^dp iPSC-derived FAD neurons; type: cell-based, human; details: for abrogation of the atorvastatin-induced decrease in pThr231Tau/tTau ratio: 3 days; for pThr231Tau/tTau, dosage effect: dose range
APP^dp1-6 neurons [2] = experiment: lipid analysis of APP^dp1-6 neurons; type: cell-based, human; details: 3 days
Tau (PHF-1) = experiment: PHF-1 (Tau) staining of 4RTau-tg mouse brain sections; type: in vivo; details: 4R Tau-tg mice, 25 mg/kg daily oral gavage, 3 months
Method: FIGS. 7A-7D show PHF-1 staining of 4RTau-tg mouse sections. […] (FIG. 7A) Representative sections stained for PHF-1. Low power images show areas of enlargements where measurements were obtained. (FIGS. 7B-7D) Sections were analyzed with video bright field microscopy and immunoreactivity was quantified as corrected optical density. * indicated p<0.05 compared to vehicle treated 4RTau-tg mice, ** indicates p<0.005 compared to vehicle treated 4RTau-tg mice. Scale bar=200 μm in low power images and 20 μm in higher power images.
Following treatment, mice were sacrificed, brains removed and sectioned along the sagittal axis with half flash frozen and half drop fixed in 4% PFA. Fixed brains were sectioned with a vibratome (40 μm) and stained for GFAP, PHF1 (Tau) or Synaptophysin. Sections were imaged with a Leica microscope with a digital camera and analyzed with ImageJ for optical density (GFAP, Synaptophysin) or % area of neuropil (PHF1). Statistics were conducted with Prism6 using ANOVA one way analysis with Tukey-Kramer post hoc analysis.

pThr231Tau/tTau [3] = experiment: pThr231Tau/tTau in non-demented control (NDC) neurons; details: NDC neurons with two copies of APP
iPSC-derived astrocytes = test system: iPSC-derived astrocytes
Source text: Scale bar, 10 μm. […] Astrocytic viability (blue line) was plotted against results from FIGS. 1D and S1A for statins (neuronal viability and pThr231Tau/Tau ratio).

APP^dp1-6 neurons [4] = experiment: cell viability of APP^dp1-6 iPSC-derived neurons; details: dose range
pTau = experiment: immunofluorescence of pTau epitopes in APP^dp1-6 neurons; type: cell-based, human; details: 10 μM, 5 days
Source text: Vehicle alone controls (DMSO) are shown in black. […] SER, selective estrogen […] (n=4). […] NF—H, neurofilament H, axonal marker. The pThr231Tau antibody used is TG3, which detects a conformational epitope of pThr231Tau. Scale bar, 100 μm.

Aβ42 secretion = experiment: secreted Aβ42 in APP-Δcholesterol neurons; type: cell-based, human; details: APP E693A and F691A+E693A neurons, 10 μM, 3 days
Source text: FIGS. 4A-4F show regulation of Aβ by CE Is Mediated by a Cholesterol Binding Domain in APP. […] Green indicates amino acid sequence. Red arrow indicates CRISPR/Cas9 cut site. […] Two E693A (line 3D9 and 2B2) and one F691A+E693A line (line D12) were generated, as well as two non-gene-edited, but clonally expanded, WT lines (B10 and B11). FIGS. 4D-4F show measurements made using APP-Δcholesterol neurons with the following genotypes: WT (average from 2 independent lines), E693A (2 independent lines), and F691A+E693A (1 line) (mean±SEM, n R 3 per line). (D) Relative secreted Ab42 levels in conditioned media from purified CD184^−, CD44^−, and CD24^+ neurons (mean±SEM, n≥3 per line).

[5] = lower concentrations that sufficed to alter brain cholesterol metabolism; Mast et al., 2017b; cited from earlier work
[6] = human, in vivo; cited from earlier work
APP^dp1-6 neurons [7] = test system: APP^dp1-6 neurons
[8] = APP^dp1-6 neurons, 10 μM (FIG. 2C)
[9] = 0.5 mM single dose at t=0, with atorvastatin 10 μM, 5 days

For `CC(C)C(O)CC[C@@H](C)[C@H]1CC[C@H]2[C@@H]3CC=C4C[C@@H](O)CC[C@]4(C)[C@H]3CC[C@]12C` (some centres unmarked) [24-hydroxycholesterol], the pThr231Tau/tTau (pThr231Tau/tTau [1]; [8]) was “reduced”.
For `Clc1ccccc1CNCC1CCC(CNCc2ccccc2Cl)CC1` (centres unmarked) [AY-9944], the pThr231Tau/tTau (pThr231Tau/tTau [1]; [8]) was “did significantly decrease; also recorded: minor effect”, the 7DHC levels (APP^dp1-6 neurons [2]; 5 μM) was “increased” and the 24-hydroxycholesterol in media (APP^dp1-6 neurons [2]; 5 μM) was “decreased”. The desmosterol levels (APP^dp1-6 neurons [2]; 5 μM) was “reduced” and the free cholesterol levels (APP^dp1-6 neurons [2]; 5 μM) was “reduced”.
In the case of `COc1ccc2cc3[n+](cc2c1OC)CCc1cc2c(cc1-3)OCO2` [Berberine], the “Tau accumulation in the CA1 region of the hippocampus” value (Tau (PHF-1)) is reported as “no change”.
With `COC(=O)[C@H](CC(C)C)NC(=O)c1ccc(NC[C@@H](N)CS)cc1-c1cccc2ccccc12` [GGTI-298] the pThr231Tau/tTau (pThr231Tau/tTau [1]; [8]) was “did not significantly reduce”.
With `Cc1cc(SCc2sc(-c3ccc(C(F)(F)F)cc3)nc2C)ccc1OCC(=O)O` [GW50156] the pThr231Tau/tTau (pThr231Tau/tTau [1]; [8]) was “did not decrease”.
In the case of `CSc1cc(C)nc(SC)c1NC(=O)CN1CCN(CCSc2nc3ccccc3[nH]2)CC1` [K604], the pThr231Tau/tTau (pThr231Tau/tTau [1]; APP^dp1-6 neurons, 25 μM, 5-day treatment (FIG. 2G)) is reported as “reduced” and the pThr231Tau/tTau (pThr231Tau/tTau [3]) is reported as “reduced”.
For `CC(C)C[C@@H](C=O)NC(=O)[C@H](CC(C)C)NC(=O)[C@H](CC(C)C)NC(=O)OCc1ccccc1` [MG132] (Cbz-Leu-Leu-Leu-aldehyde), the “abrogation of the atorvastatin-induced decrease in pThr231Tau/tTau ratio” value (pThr231Tau/tTau [1]; 5 μM co-treated with atorvastatin 10 μM) was “abrogated the decrease”.
For `C[C@@](O)(CCOP(=O)(O)OP(=O)(O)O)CC(=O)O` [MVA-5PP, mevalonate-5-pyrophosphate], the “rescue of the effect of atorvastatin on pThr231Tau/tTau” value (from here on “rescue … on pThr231Tau/tTau”) (pThr231Tau/tTau [1]) was “rescued”.
For `C[C@@](O)(CCOP(=O)(O)O)CC(=O)O` [MVP, mevalonate-5-phosphate], the “rescue … on pThr231Tau/tTau” value (pThr231Tau/tTau [1]; [9]) was “rescued”.
With `O=S(=O)(c1ccccc1)N(CC(F)(F)F)c1ccc(C(O)(C(F)(F)F)C(F)(F)F)cc1` [T091317] the pThr231Tau/tTau (pThr231Tau/tTau [1]; [8]) was “reduced”, the 24-hydroxycholesterol in media (APP^dp1-6 neurons [2]; 10 μM) was “unaltered” and the desmosterol levels (APP^dp1-6 neurons [2]; 10 μM) was “decreased”.
In the case of `F/C(COc1ccc2c(c1)[nH]c1ccccc12)=C1/CN2CCC1CC2` [YM-53601], the pThr231Tau/tTau (pThr231Tau/tTau [1]; APP^dp1-6 neurons, 20 μM (FIG. 2C)) is reported as “did significantly decrease”.
In the case of `CC(C)c1c(C(=O)Nc2ccccc2)c(-c2ccccc2)c(-c2ccc(F)cc2)n1CC[C@@H](O)C[C@@H](O)CC(=O)O` [atorvastatin], the astrocyte viability (iPSC-derived astrocytes) is reported as “induced major astrocyte cell-death”, the “cell viability or neuronal number” value (APP^dp1-6 neurons [4]) is reported as “slightly cytotoxic at higher concentrations” and the “pThr231Tau/Tau after removal of compound” value (pThr231Tau/tTau [1]; removal after five days of treatment) is reported as “recovery”. The pS202/T205Tau by immunofluorescence (pTau) was “reduced”, the pS396/S404Tau by immunofluorescence (pTau) was “reduced” and the “pThr231 phosphorylation-dependent conformational Tau epitope (TG3) by immunofluorescence” value (pTau) was “reduced”. For the same molecule, the 7DHC levels (APP^dp1-6 neurons [2]; 10 μM) was “trended towards decreased”, the 24-hydroxycholesterol in media (APP^dp1-6 neurons [2]; 10 μM) was “unaltered” and the desmosterol levels (APP^dp1-6 neurons [2]; 10 μM) was “reduced”. For the same molecule, the Aβ42 secretion (Aβ42 secretion) was “did not affect” and the pThr231Tau/tTau (pThr231Tau/tTau [3]) was “reduced”.
With `CC(C)c1cc(C(C)C)c(CC(=O)NS(=O)(=O)Oc2c(C(C)C)cccc2C(C)C)c(C(C)C)c1` [avasimibe] the pThr231Tau/tTau (pThr231Tau/tTau [1]; APP^dp1-6 neurons, 10 μM, 5-day treatment (FIG. 2G)) was “reduced” and the pThr231Tau/tTau (pThr231Tau/tTau [3]) was “reduced”.
In the case of `O=C1Nc2ccc(Cl)cc2[C@@](C#CC2CC2)(C(F)(F)F)O1` [efavirenz, (S)-6-chloro-(cyclopropylethynyl)-1,4-dihydro-4-(trifluoromethyl)-2H-3,1-benzoxazin-2-one], the astrocyte viability (iPSC-derived astrocytes) is listed as “did not affect astrocyte viability even at high doses”, the “adverse effects in mice” value [5] is listed as “Major adverse effects were not observed” and the “adverse effects in HIV patients” value [6] is listed as “significant adverse effects that include neurotoxicity”.
With `CC[C@H](C)C(=O)O[C@H]1C[C@@H](C)C=C2C=C[C@H](C)[C@H](CC[C@@H]3C[C@@H](O)CC(=O)O3)[C@H]21` [lovastatin] the “cell viability or neuronal number” value (APP^dp1-6 neurons [4]) was “minor effects” and the “pThr231Tau/tTau, dosage effect” value (pThr231Tau/tTau [1]; APP^dp1-6 neurons) was “reduced pThr231Tau/tTau in a dose-dependent manner”.
With `CC[C@H](C)C(=O)O[C@H]1CCC=C2C=C[C@H](C)[C@H](CC[C@@H]3C[C@@H](O)CC(=O)O3)[C@H]21` [mevastatin] the “cell viability or neuronal number” value (APP^dp1-6 neurons [7]) was “minor effects” and the “pThr231Tau/tTau, dosage effect” value (pThr231Tau/tTau [1]; APP^dp1-6 neurons) was “reduced pThr231Tau/tTau in a dose-dependent manner”.
In the case of `C=C1[C@@H](O)[C@@H]2O[C@]3(CC[C@H](/C=C/[C@@H](C)[C@@H]4CC(C)=C[C@@]5(O[C@H](C[C@@](C)(O)C(=O)O)CC[C@H]5O)O4)O3)CC[C@H]2O[C@@H]1[C@@H](O)C[C@H](C)[C@H]1O[C@@]2(CCCCO2)CC[C@H]1C` [okadaic acid], the “abrogation of the atorvastatin-induced decrease in pThr231Tau/tTau ratio” value (pThr231Tau/tTau [1]; 1.25 nM co-treated with atorvastatin 10 μM) is reported as “Only proteasomal inhibition abrogated the decrease”.
With `CC(C)c1nc(N(C)S(C)(=O)=O)nc(-c2ccc(F)cc2)c1/C=C/[C@@H](O)C[C@@H](O)CC(=O)O` [rosuvastatin] the “pThr231Tau/tTau, confirmed non-toxic screening hit” value (pThr231Tau/tTau [1]; APP^dp1-6 neurons, 5 μM, 5 days) was “hit-list”.
In the case of mevalonate [MVA], the “rescue … on pThr231Tau/tTau” value (pThr231Tau/tTau [1]; [9]) is reported as “rescued”.

Reference: US12427155B2, “Treatment for tau-related diseases” (The Regents of the University of California, priority 2019, dated 2025)
